Assay results as given in patent publication US20260008758A1, “LINEAR DIPEPTIDYL PEPTIDASE 1 INHIBITORS AND USES THEREOF” (Insmed Incorporated, priority 2024, published 2026).

Tests used:
[1] = target: human DPP1 enzyme (Homo sapiens (Human), UniProt P53634); assay: Human DPP1 enzyme single-point percent inhibition testing (HL-60 lysate, H-Gly-Arg-AMC substrate); assay type: biochemical; conditions: read-out: human DPP1 enzyme % inhibition @ 10 nM, 10 nM compound, 400 μM H-Gly-Arg-AMC, 10 min pre-incubation at 37° C.
Description: A crude lysate of HL-60 cells (ATCC; Manassas, VA) was used as a source of human DPP1 enzyme in the assay. Lysate was prepared in 1% Triton X-100 in PBS at a concentration of 20,000 live cells per […] of lysis buffer and was centrifuged at 16,000 rcf for 10 minutes at 4° C., after which supernatant was collected and flash-frozen in liquid nitrogen. Test articles were applied to human DPP1 enzyme in Assay Buffer (25 mM MES pH 6.0, 50 mM NaCl, 5 mM DTT) in a total reaction volume of 125 μL. 25 μL of compound diluted to 50 nM in Assay Buffer plus 5% DMSO was first added to 50 μL of HL-60 lysate diluted to contain a DPP1 enzyme concentration of roughly 1 ng/μL and allowed to pre-incubate for 10 minutes at 37° C. after which 50 μL of 1000 μM H-Gly-Arg-AMC substrate (Bachem; St. Torrance, CA) was added, giving final compound concentration of 10 nM, a final substrate concentration of 400 μM and a final DMSO concentration of 1%. Substrate cleavage was measured for 90 minutes at 37° C., with fluorescence at Excitation/Emission 350/450 nm measured every 5 minutes. DPP1 concentration was interpolated based on its activity relative to a standard curve of activated human recombinant DPP1 enzyme. Percent inhibition at 10 nM was calculated for each test article based on remaining DPP1 activity compared to enzyme activity in wells that received only vehicle control.

[2] = target: DPP1 in HL-60 cells (Homo sapiens (Human), UniProt P53634); assay: DPP1 cell single-point percent inhibition testing (HL-60 cells, H-Gly-Phe-AFC substrate); assay type: cell-based; conditions: read-out: DPP1 cell % inhibition @ 5 nM, 5 nM compound, 100 μM H-Gly-Phe-AFC, 60 min pre-incubation at 37° C.
Description: HL-60 cells (ATCC; Manassas, VA) were maintained in RPMI-1640 supplemented with 20% heat-inactivated FBS and 1× Antibiotic Antimycotic (Cytiva; Marlborough, MA). Media was changed every three to four days and cells were not allowed to exceed 1×10^6 cells per mL. Prior to assay, cells were collected by centrifugation at 500 rcf for 3 minutes, resuspended in RPMI (with no additional supplements) and counted. Cells were diluted in RPMI to a concentration of 5×10^5 live cells per mL and transferred to black 96-well plates for assay, 60 μL per well. Test articles were diluted to 25 nM in RPMI plus 0.5% DMSO, and 20 μL was added to each assay well. Compound was allowed to pre-incubate with cells with gentle shaking at 100 rpm for 60 minutes at 37° C. in a cell culture incubator maintained at 5% CO2, after which 20 μL of 500 μM H-Gly-Phe-AFC cell-permeable substrate (MP Biomedicals; Solon, OH) in RPMI was added to each well, giving final compound concentration of 5 nM, a final substrate concentration of 100 μM and a final DMSO concentration of 0.1%. Plates were returned to the incubator with shaking at 100 rpm for 30 minutes, after which fluorescence was measured at Excitation/Emission 400/505 nm. Percent Inhibition was calculated from RFU values by first subtracting background values (wells in which RPMI was substituted for cells) from each well, and then subtracting background-subtracted RFU derived from wells that received a final concentration of 10 μM brensocatib. This value represents the non-specific substrate cleavage from the HL-60 cells, and the remaining RFU should theoretically be solely the contribution of DPP1 enzyme activity. The final percent inhibition value was calculated for each test article based on remaining RFU compared to RFU from wells that received only vehicle control.

Sequence of human DPP1 enzyme (P53634 25-134): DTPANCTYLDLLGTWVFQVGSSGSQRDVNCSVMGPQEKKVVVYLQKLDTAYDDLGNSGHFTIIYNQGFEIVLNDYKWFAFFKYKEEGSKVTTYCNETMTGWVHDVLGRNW
Sequence of human DPP1 enzyme (P53634 231-394): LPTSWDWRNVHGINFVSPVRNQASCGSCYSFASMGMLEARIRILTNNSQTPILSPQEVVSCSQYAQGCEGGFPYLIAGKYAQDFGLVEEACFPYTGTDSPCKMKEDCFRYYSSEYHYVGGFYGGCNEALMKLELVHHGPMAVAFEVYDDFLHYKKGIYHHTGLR
Sequence of human DPP1 enzyme (P53634 395-463): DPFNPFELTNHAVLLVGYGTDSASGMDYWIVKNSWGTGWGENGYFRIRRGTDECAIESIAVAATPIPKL
Sequence of DPP1 in HL-60 cells (P53634 25-134): as the sequence (P53634 25-134) above
Sequence of DPP1 in HL-60 cells (P53634 231-394): as the sequence (P53634 231-394) above
Sequence of DPP1 in HL-60 cells (P53634 395-463): as the sequence (P53634 395-463) above

| Compound | inhibition at 0.01 µM [1] | inhibition at 0.005 µM [2] |
| --- | --- | --- |
| CO[C@@H](CN(C)C)C(=O)N[C@H](C#N)Cc1ccc(-c2ccc(CN3CCN(C)CC3)cc2)cc1F [Compound 323] | ≤ 40% | 76.5 to 93.9% |
| CO[C@@H](CN(C)C)C(=O)N[C@H](C#N)Cc1ccc(-c2ccc3oc(=O)n(C)c3c2)cc1F [Compound 324] | 40 to 66.7% | 76.5 to 93.9% |
| CO[C@@H](CN(C)C)C(=O)N[C@H](C#N)Cc1ccc(-c2ccc3c(n2)CCCN3)cc1F [Compound 325] | ≤ 40% | ≤ 76.5% |
| COCCN(C)CCn1c(=O)oc2ccc(-c3ccc(C[C@@H](C#N)NC(=O)[C@H](CN(C)C)OC)c(F)c3)cc21 [Compound 326] | ≥ 66.7% | ≤ 76.5% |
| CO[C@@H](CN(C)C)C(=O)N[C@H](C#N)Cc1ccc(-c2ccc3cnn(C)c3c2)cc1 [Compound 328] | ≤ 40% | ≤ 76.5% |
| CO[C@@H](CN(C)C)C(=O)N[C@H](C#N)Cc1ccc(-c2ccc3nnn(C)c3c2)cc1 [Compound 329] | ≤ 40% | ≤ 76.5% |
| CO[C@@H](CN(C)C)C(=O)N[C@H](C#N)Cc1ccc(-c2cnc3c(n2)CCCC3)cc1 [Compound 330] | ≤ 40% | ≤ 76.5% |
| CO[C@@H](CN(C)C)C(=O)N[C@H](C#N)Cc1ccc(-c2ccc(S(=O)(=O)N3CCC3)cc2)cc1 [Compound 331] | ≤ 40% | ≤ 76.5% |
| CO[C@@H](CN(C)C)C(=O)N[C@H](C#N)Cc1ccc(-c2ccc3cnn(C)c3c2)cc1F [Compound 332] | ≤ 40% | ≤ 76.5% |
| CO[C@@H](CN(C)C)C(=O)N[C@H](C#N)Cc1ccc(-c2ccc3nnn(C)c3c2)cc1F [Compound 333] | 40 to 66.7% | 76.5 to 93.9% |
| CO[C@@H](CN(C)C)C(=O)N[C@H](C#N)Cc1ccc(-c2cnc3c(n2)CCCC3)cc1F [Compound 334] | ≤ 40% | ≤ 76.5% |
| CO[C@@H](CN(C)C)C(=O)N[C@H](C#N)Cc1ccc(-c2ccc(S(=O)(=O)N3CCC3)cc2)cc1F [Compound 335] | ≤ 40% | ≤ 76.5% |
| CO[C@@H](CN(C)C)C(=O)N[C@H](C#N)Cc1cc2c(cc1F)-c1ccc(F)cc1CO2 [Compound 336] | ≤ 40% | ≤ 76.5% |
| CN(C)C[C@H](O)C(=O)N[C@H](C#N)Cc1cc2c(cc1F)-c1ccc(C#N)cc1CO2 [Compound 338] | ≤ 40% | ≤ 76.5% |
| CN(C)C[C@H](O)C(=O)NC(C#N)Cc1cc2c(cc1F)-c1cc3c(cc1CO2)oc(=O)n3C (stereo partly shown) [Compound 339] | ≤ 40% | ≤ 76.5% |
| CN(C)C[C@H](O)C(=O)NC(C#N)Cc1cc2c(cc1F)-c1ccc3oc(=O)n(C)c3c1CO2 (stereo partly shown) [Compound 341] | ≤ 40% | ≤ 76.5% |
| CN(C)C[C@H](O)C(=O)N[C@H](C#N)Cc1ccc(-c2ccc3c(c2)C2(CC3)CCN(C)CC2)cc1 [Compound 342] | 40 to 66.7% | ≤ 76.5% |
| CN(C)C[C@H](O)C(=O)N[C@H](C#N)Cc1ccc(-c2ccc3c(c2)C2(CCCN(C)C2)C(=O)N3C)cc1 (stereo partly shown) [Compound 343] | ≤ 40% | ≤ 76.5% |
| CN(C)CCn1c(=O)oc2ccc(-c3ccc(C[C@@H](C#N)NC(=O)[C@@H](O)CN(C)C)cc3)cc21 [Compound 344] | 40 to 66.7% | ≤ 76.5% |
| Cc1cn2cc(-c3ccc(C[C@@H](C#N)NC(=O)[C@@H](O)CN(C)C)cc3)cc2c(C)n1 [Compound 345] | ≤ 40% | ≤ 76.5% |
| CN(C)C[C@H](O)C(=O)N[C@H](C#N)Cc1ccc(-c2ccc3c(c2)C2(CN(C)C2)OC3=O)cc1 [Compound 346] | 40 to 66.7% | ≤ 76.5% |

| Compound | inhibition at 0.01 µM [1] | inhibition at 0.005 µM [2] |
| --- | --- | --- |
| CCN1C(=O)Cc2ccc(-c3ccc(C[C@@H](C#N)NC(=O)[C@@H](O)CN(C)C)cc3)cc21 [Compound 347] | ≤ 40% | ≤ 76.5% |
| CN(C)C[C@H](O)C(=O)N[C@H](C#N)Cc1ccc(-c2ccc3c(c2)C2(CCN(C)C2)OC3=O)cc1 (stereo partly shown) [Compound 348] | 40 to 66.7% | ≤ 76.5% |
| CN(C)C[C@H](O)C(=O)N[C@H](C#N)Cc1ccc(-c2ccc3cnn(C4CCN(C)CC4)c3c2)cc1 [Compound 349] | 40 to 66.7% | ≤ 76.5% |
| CN(C)C[C@H](O)C(=O)N[C@H](C#N)Cc1ccc(-c2ccc3c(c2)C2(CCN(C4COC4)CC2)OC3)cc1 [Compound 350] | ≤ 40% | ≤ 76.5% |
| CN(C)C[C@H](O)C(=O)N[C@H](C#N)Cc1ccc(-c2ccc3oc(=O)n(CCN4CCOCC4)c3c2)cc1 [Compound 351] | ≤ 40% | ≤ 76.5% |
| CN(C)C[C@H](O)C(=O)N[C@H](C#N)Cc1ccc(-c2ccc(CN3CCN(C)CC3)cc2)cc1 [Compound 352] | ≤ 40% | ≤ 76.5% |
| CN(C)C[C@H](O)C(=O)N[C@H](C#N)Cc1ccc(-c2ccc3oc(=O)n(C)c3c2)cc1 [Compound 353] | 40 to 66.7% | 76.5 to 93.9% |
| CN(C)C[C@H](O)C(=O)N[C@H](C#N)Cc1ccc(-c2ccc3c(n2)CCCN3)cc1 [Compound 354] | ≤ 40% | ≤ 76.5% |
| CN(C)C[C@H](O)C(=O)N[C@H](C#N)Cc1ccc(-c2ccc3c(c2)C2(CC3)CCN(C)CC2)cc1F [Compound 355] | ≥ 66.7% | ≤ 76.5% |
| CN(C)C[C@H](O)C(=O)N[C@H](C#N)Cc1ccc(-c2ccc3c(c2)C2(CCCN(C)C2)C(=O)N3C)cc1F (stereo partly shown) [Compound 356] | 40 to 66.7% | 76.5 to 93.9% |
| CN(C)CCn1c(=O)oc2ccc(-c3ccc(C[C@@H](C#N)NC(=O)[C@@H](O)CN(C)C)c(F)c3)cc21 [Compound 357] | ≥ 66.7% | ≤ 76.5% |
| Cc1cn2cc(-c3ccc(C[C@@H](C#N)NC(=O)[C@@H](O)CN(C)C)c(F)c3)cc2c(C)n1 [Compound 358] | ≤ 40% | ≤ 76.5% |
| CN(C)C[C@H](O)C(=O)N[C@H](C#N)Cc1ccc(-c2ccc3c(c2)C2(CN(C)C2)OC3=O)cc1F [Compound 359] | 40 to 66.7% | ≤ 76.5% |
| CCN1C(=O)Cc2ccc(-c3ccc(C[C@@H](C#N)NC(=O)[C@@H](O)CN(C)C)c(F)c3)cc21 [Compound 360] | 40 to 66.7% | 76.5 to 93.9% |
| CN(C)C[C@H](O)C(=O)N[C@H](C#N)Cc1ccc(-c2ccc3c(c2)C2(CCN(C)C2)OC3=O)cc1F (stereo partly shown) [Compound 361] | 40 to 66.7% | ≤ 76.5% |
| CN(C)C[C@H](O)C(=O)N[C@H](C#N)Cc1ccc(-c2ccc3cnn(C4CCN(C)CC4)c3c2)cc1F [Compound 362] | ≥ 66.7% | ≤ 76.5% |
| CN(C)C[C@H](O)C(=O)N[C@H](C#N)Cc1ccc(-c2ccc3c(c2)C2(CCN(C4COC4)CC2)OC3)cc1F [Compound 363] | 40 to 66.7% | ≤ 76.5% |
| CN(C)C[C@H](O)C(=O)N[C@H](C#N)Cc1ccc(-c2ccc3oc(=O)n(CCN4CCOCC4)c3c2)cc1F [Compound 364] | 40 to 66.7% | ≤ 76.5% |
| CN(C)C[C@H](O)C(=O)N[C@H](C#N)Cc1ccc(-c2ccc(CN3CCN(C)CC3)cc2)cc1F [Compound 365] | ≤ 40% | ≤ 76.5% |
| CN(C)C[C@H](O)C(=O)N[C@H](C#N)Cc1ccc(-c2ccc3oc(=O)n(C)c3c2)cc1F [Compound 366] | 40 to 66.7% | 76.5 to 93.9% |
